Data as given in BindingDB's records for doi:10.1016/j.bioorg.2016.10.002 (Hazara University, 2016).

Legend:
Acetylcholinesterase = Acetylcholinesterase (Electrophorus electricus, UniProt O42275); assay: In vitro AChE and BChE Assay; conditions: pH 8
Procedure: (§1) The synthesized compounds (each separately) were dissolved in a mixture of DMSO (1 ml) and methanol (9 ml) and then diluted in KH2PO4/K2HPO4 buffer (0.1 M, pH 8.0) to obtain desired concentration. […] The mixture was pre-incubated at 30 °C for 10 min and followed by adding 1 mM ATCI or BTCI and incubated again for 15 min. […] Instead of inhibitor, DMSO was used asnegative control to subtract its effect on activity. All reactions were carried out in triplicate.

[1] = target: Carboxylic ester hydrolase (Equus caballus, UniProt Q9N1N9); assay: In vitro AChE and BChE Assay; conditions: pH 8
Chain of Carboxylic ester hydrolase (Q9N1N9 whole entry): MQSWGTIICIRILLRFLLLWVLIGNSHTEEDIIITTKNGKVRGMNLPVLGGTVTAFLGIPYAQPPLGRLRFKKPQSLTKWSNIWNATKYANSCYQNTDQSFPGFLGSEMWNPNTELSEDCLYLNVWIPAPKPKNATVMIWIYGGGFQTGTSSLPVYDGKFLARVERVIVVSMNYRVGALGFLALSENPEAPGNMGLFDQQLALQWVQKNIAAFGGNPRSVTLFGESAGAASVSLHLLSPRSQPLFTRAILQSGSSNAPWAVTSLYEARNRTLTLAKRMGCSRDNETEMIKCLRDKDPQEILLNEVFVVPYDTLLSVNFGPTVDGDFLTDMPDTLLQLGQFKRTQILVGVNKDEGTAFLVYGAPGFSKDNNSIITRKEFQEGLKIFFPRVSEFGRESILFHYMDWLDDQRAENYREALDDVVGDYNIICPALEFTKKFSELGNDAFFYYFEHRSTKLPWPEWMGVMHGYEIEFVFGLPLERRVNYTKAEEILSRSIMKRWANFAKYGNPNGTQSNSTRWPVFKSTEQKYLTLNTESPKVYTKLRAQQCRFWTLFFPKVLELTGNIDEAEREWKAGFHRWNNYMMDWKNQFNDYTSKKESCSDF
Procedure: as §1

Chain of Acetylcholinesterase (O42275 whole entry): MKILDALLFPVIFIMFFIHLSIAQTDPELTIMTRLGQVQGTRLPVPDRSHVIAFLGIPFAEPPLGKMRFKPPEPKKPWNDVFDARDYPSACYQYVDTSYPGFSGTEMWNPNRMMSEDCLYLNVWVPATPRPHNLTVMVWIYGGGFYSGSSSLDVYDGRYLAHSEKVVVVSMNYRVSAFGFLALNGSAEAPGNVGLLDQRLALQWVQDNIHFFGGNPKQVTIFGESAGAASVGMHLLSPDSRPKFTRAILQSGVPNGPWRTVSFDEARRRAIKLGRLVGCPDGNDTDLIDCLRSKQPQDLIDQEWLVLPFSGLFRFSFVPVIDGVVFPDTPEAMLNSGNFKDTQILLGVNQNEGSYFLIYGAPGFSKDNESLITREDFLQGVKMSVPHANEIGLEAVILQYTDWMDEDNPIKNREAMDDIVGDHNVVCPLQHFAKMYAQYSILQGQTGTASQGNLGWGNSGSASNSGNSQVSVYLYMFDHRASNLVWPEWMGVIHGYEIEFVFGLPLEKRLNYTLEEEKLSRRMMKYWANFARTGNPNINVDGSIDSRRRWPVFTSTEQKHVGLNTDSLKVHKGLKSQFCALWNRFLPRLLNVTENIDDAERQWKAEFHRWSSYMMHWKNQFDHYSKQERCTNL

Structure (SMILES) | IC50 (Acetylcholinesterase) | IC50 [1]
CC(=O)C1=C(C)NC(NCC(=O)Nc2ccccc2)=NC1c1ccc(Br)cc1 (stereo not drawn) [2-(5-Acetyl-4-(4-bromophenyl)-6-methyl-1,4-dihydropyrimidin-2-ylamino)-N-phenylacetamide (5c)] | 12.9 µM | 38.5 µM
CC(=O)C1=C(C)NC(N)=NC1c1ccc(Cl)cc1 (stereo not drawn) [1-(2-Amino-4-(4-chlorophenyl)-6-methyl-1,4-dihydropyrimidin-5-yl)ethanone (2e)] | 68.3 µM | –
CC(=O)C1=C(C)NC(=S)NC1c1ccc(OCc2ccccc2)cc1 (stereo not drawn) [1-(4-(4-(Benzyloxy)phenyl)-6-methyl-2-thioxo-3,4-tetrahydropyrimidin-5-yl)ethanone (1c)] | 28.1 µM | –
CC(=O)C1=C(C)NC(NCC(=O)Nc2ccccc2)=NC1c1ccccc1 (stereo not drawn) [2-(5-Acetyl-6-methyl-4-phenyl-1,4-dihydropyrimidin-2-ylamino)-N-phenylacetamide (5a)] | 5.33 µM | 15 µM
CC(=O)C1=C(C)NC(=S)NC1c1ccc(Br)cc1 (stereo not drawn) [1-(4-(4-Bromophenyl)-6-methyl-2-thioxo-3,4-tetrahydropyrimidin-5-yl)ethanone (1b)] | 53.2 µM | –
CC(=O)C1=C(C)NC(SCC(=O)Nc2ccccc2)=NC1c1ccc(Br)cc1 (stereo not drawn) [2-(5-Acetyl-4-(4-bromophenyl)-6-methyl-1,4-dihydropyrimidin-2-ylthio)-N-phenylacetamide (4c)] | 8.23 µM | 24.5 µM
CC(=O)C1=C(C)NC(NCC(=O)Nc2ccc(C)cc2)=NC1c1ccc(Br)cc1 (stereo not drawn) [2-(5-Acetyl-4-(4-bromophenyl)-6-methyl-1,4-dihydropyrimidin-2-ylamino)-N-p-tolylacetamide (5e)] | 3.13 µM | 20.9 µM
CC(=O)C1=C(C)NC(N)=NC1c1ccc(Br)cc1 (stereo not drawn) [1-(2-Amino-4-(4-bromophenyl)-6-methyl-1,4-dihydropyrimidin-5-yl)ethanone (2b)] | 58 µM | –
CC(=O)C1=C(C)NC(SCC(=O)Nc2ccccc2)=NC1c1ccccc1 (stereo not drawn) [2-(5-Acetyl-6-methyl-4-phenyl-1,4-dihydropyrimidin-2-ylthio)-N-phenylacetamide (4a)] | 0.17 µM | 2.37 µM
CC(=O)C1=C(C)NC(=S)NC1c1ccc(Cl)cc1 (stereo not drawn) [1-(4-(4-Chlorophenyl)-6-methyl-2-thioxo-3,4-tetrahydropyrimidin-5-yl)ethanone (1e)] | 59.9 µM | –
CC(=O)C1=C(C)NC(N)=NC1c1ccc(OCc2ccccc2)cc1 (stereo not drawn) [1-(2-Amino-4-(4-(benzyloxy)phenyl)-6-methyl-1,4-dihydropyrimidin-5-yl)ethanone (2c)] | 39.5 µM | –
CC(=O)C1=C(C)NC(SCC(=O)Nc2ccc(C)cc2)=NC1c1ccc(C)cc1 (stereo not drawn) [2-(5-Acetyl-6-methyl-4-p-tolyl-1,4-dihydropyrimidin-2-ylthio)-N-p-tolylacetamide (4h)] | 7.63 µM | 56.3 µM
CC(=O)C1=C(C)NC(SCC(=O)Nc2ccc(C)cc2)=NC1c1ccc(Cl)cc1 (stereo not drawn) [2-(5-Acetyl-4-(4-chlorophenyl)-6-methyl-1,4-dihydropyrimidin-2-ylthio)-N-p-tolylacetamide (4f)] | 1.11 µM | 50 µM
CC(=O)C1=C(C)NC(NCC(=O)Nc2ccc(C)cc2)=NC1c1ccc(C)cc1 (stereo not drawn) [2-(5-Acetyl-6-methyl-4-p-tolyl-1,4-dihydropyrimidin-2-ylamino)-N-p-tolylacetamide (5h)] | 7.87 µM | 29.4 µM
CC(=O)C1=C(C)NC(=S)NC1c1ccccc1 (stereo not drawn) [5-Aceto-6-methyl-4-phenyl-3,4-dihydropyrimidin-2(1H)-thione (1a)] | 87.6 µM | –
CC(=O)C1=C(C)NC(=S)NC1c1ccc(C)cc1 (stereo not drawn) [1-(6-Methyl-2-thioxo-4-p-tolyl-3,4-tetrahydropyrimidin-5-yl)ethanone (1d)] | 55.9 µM | –
CC(=O)C1=C(C)NC(SCC(=O)Nc2ccc(C)cc2)=NC1c1ccc(Br)cc1 (stereo not drawn) [2-(5-Acetyl-4-(4-bromophenyl)-6-methyl-1,4-dihydropyrimidin-2-ylthio)-N-p-tolylacetamide (4e)] | 1.39 µM | 52.8 µM
CC(=O)C1=C(C)NC(NCC(=O)Nc2ccc(Cl)cc2)=NC1c1ccccc1 (stereo not drawn) [2-(5-Acetyl-6-methyl-4-phenyl-1,4-dihydropyrimidin-2-ylamino)-N-(4-chlorophenyl)acetamide (5b)] | 2.01 µM | 27.2 µM
CC(=O)C1=C(C)NC(SCC(=O)Nc2ccc(Cl)cc2)=NC1c1ccccc1 (stereo not drawn) [2-((5-Acetyl-6-methyl-4-phenyl-1,4-dihydropyrimidin-2-yl)thio)-N-(4-chlorophenyl)acetamide (4b)] | 1.97 µM | 16.4 µM
CC(=O)C1=C(C)NC(N)=NC1c1ccccc1 (stereo not drawn) [1-(2-Amino-6-methyl-4-phenyl-1,4-dihydropyrimidin-5-yl)ethanone (2a)] | 41.3 µM | –
CC(=O)C1=C(C)NC(NCC(=O)Nc2ccc(C)cc2)=NC1c1ccc(Cl)cc1 (stereo not drawn) [2-(5-Acetyl-4-(4-chlorophenyl)-6-methyl-1,4-dihydropyrimidin-2-ylamino)-N-p-tolylacetamide (5f)] | 3.08 µM | 26.4 µM
